Reference: patent publication US20090137517A1, “SENSITIZING A CELL TO CANCER TREATMENT BY MODULATING THE ACTIVITY OF A NUCLEIC ACID ENCODING RPS27L PROTEIN” (Agency for Science, Technology and Research, priority 2006, published 2009)

Columns and labels:
Type in all cases: cell-based, human
HCT116 cells [1] = test: Cell cycle and apoptosis analysis by flow cytometry (sub-G1 DNA content)
Protocol: (§1) Cells cycle analysis was performed by DNA content quantification. The cells were fixed with 70% ethanol and stained with propidium iodide (50 μg/ml) staining. The stained cells were analyzed by FACScalibur (BD Bioscience). For the BrdU incorporation assay and mitochondrial membrane potential detection, the BrdU Flow Kit and JC-1 staining kit (both from BD Bioscience) were used, respectively, following the instruction manual. Stained cells were analyzed by FACScalibur (BD Bioscience) and quantified by using CellQuest software (BD Bioscience).

RPS27L protein [2] = test: Western blot of RPS27L protein in U2OS, SH-SY5Y and Saos-2 cells; settings: U2OS and SH-SY5Y (p53 wild type), Saos-2 (p53-deficient); VP16 (10 μM), ADR (1 μM), 5-FU (375 μM)
Protocol: (§2) To investigate whether the p53-induced increase in RPS27L mRNA also gives rise to the increased protein levels, immunoblot analysis of p53 wild-type and p53 null HCT116 cells treated with ADR, 5-FU or nutlin-3, a small molecule MDM2 antagonist that directly activates p53 (Vassilev, L. T., Vu, B. T., et al. (2004) “In vivo activation of the p53 pathway by small-molecule antagonists of MDM2” Science, vol. 303, p. 844-848) was performed. […] To extend this observations to other cell lines and to other p53 stimuli, U2OS (human osteosarcoma cell line) and SH-SY5Y (human neuroblastoma cell line) cells (p53 wild type) as well as Saos-2 cells (human osteosarcoma cell line, p53-deficient) were treated with ADR, etoposide phosphate (VP16®) and 5-FU (FIG. 2B). […] Obviously, 5-FU treatment activates a posttranslational mechanism that causes RPS27L protein downregulation in spite of the increased mRNA expression.
(§3) Cells were harvested and lysed with RIPA buffer (50 mM Tris-HCl, pH7.4, 1 mM EDTA, 150 mM NaCl, 1% Nonidet P-40, 0.5% sodium deoxycholate and proteinase inhibitors). The lysates were clarified by centrifugation at 16,000×g for 15 minutes at 4° C. Protein concentrations were determined with the Bradford Protein Assay Kit (Bio-Rad). 20-50 μg protein samples were separated by SDS-PAGE, transferred onto an Immobilon membrane (Millipore) and blotted with antibodies. Anti-p53 and anti-p21 antibodies were from Santa Cruz; anti-MDM2 and anti-Puma antibodies were from Merck. The rabbit polyconal antibody to RPS27L was raised against a 14 amino acid peptide from human RPS27L (SEQ ID NO: 2: LHPSLEEEKKKHKK).

p53 and p21 = test: Western blot of p53 and p21 protein levels in HCT116 cells; settings: ADR (1 μM), 5-FU (375 μM), nutlin-3 (10 μM)
Protocol: as §2, §3

RPS27L protein [3] = test: Western blot of RPS27L protein levels in HCT116 cells; settings: ADR (1 μM), 5-FU (375 μM), nutlin-3 (10 μM)
Protocol: as §2, §3

RPS27L mRNA = test: RT-PCR of RPS27L mRNA after drug treatment of HCT116 cells; settings: p53 wild-type HCT116 cells; ADR (1 μM) or 5-FU (375 μM); not in p53 null cells
Text: FIG. 1A depicts the microarray analysis showing a set of genes whose expression was induced by the DNA damaging agents adriamycin (ADR) and 5-fluorouracil (5-FU) in p53 wild-type HCT116 cells (human colorectal carcinoma cell line containing wild type p53) but not in the p53 null counterpart. In both treatments, RPS27L, together with bona fide p53 targets such as cdkn1a (encodes p21), Pmaid (encodes Noxa) and ccd3 (encodes Puma), was unregulated in a p53-dependent manner. To validate the microarray data, RT-PCR analysis was performed (FIG. 1B).
The human colon carcinoma cell line HCT116 and its p53 knock-out derivate cells were kindly provided by Dr. Bert Vogelstein. HCT116 cells can also be purchased under the ATCC number: CCL 247. The human osteosarcoma cell lines U2OS and Saos-2 can be purchased under the following ATCC numbers: U2OS, ATCC HTB-96; Saos-2, ATCC HTB-85 and SH-SY5Y, ATCC CRL-2266. Cells were grown in DMEM supplemented with 10% fetal bovine serum and penicillin-streptomycin (Invitrogen). Adriamycin, etoposide phosphate (VP16®) and 5-fluorouracil were purchased from Sigma-Aldrich.
(§4) All RT-PCR was performed using the Titanium One Step RT-PCR Kit (BD Clontech).

HCT116 cells [4] = test: γ-H2AX focus formation, immunofluorescence and confocal microscopy
Protocol: A deficient DNA damage checkpoint is expected to increase DNA damage. γ-H2AX foci are considered to be sensitive indicators of double strand breaks (DSB). We looked for γ-H2AX focus formation after etoposide phosphate (VP16®) treatment and monitored the reversibility post-VP16 washout.
The cells were seeded in 4-well or 8-well culture slides. After treatment, cells were fixed with 3.7% paraformaldehyde in PBS and permeabilized with 0.2% Triton-X100. Cells were sequentially incubated with primary antibodies (see above under “Protein Analysis and Generation of Anti-RPS27L Antibody”) and Alexa Fluor 488 or Alexa Fluor 546-conjugated secondary antibodies (Invitrogen) for 1 hour each and mounted in Fluorsave (Merck) mounting medium. DRAQ5 (Biostats, UK) was diluted in mounting medium for nuclear staining. The stained cells were examined by Zeiss LSM510 confocal microscopy.

HCT116 cells [5] = test: JC-1 staining, mitochondrial membrane potential by flow cytometry; settings: RPS27L shRNA HCT116 cells, ADR treatment
Protocol: To further define the nature of this cell death response the inventors used another assay, namely flow cytometric detection of cells stained with JC-1. The JC-1-staining identifies cell death events as a result of loss of mitochondria membrane potential (ΔΨm).
as §1

RPS27 = test: Specificity of RPS27L siRNA, RT-PCR of RPS27; settings: HCT116 cells transfected with siRNA, then VP16 (10 μM)
Protocol: (§5) The siRNA oligo targeting RPS27L (SEQ ID NO: 1: ggttgctacaagattacta was purchased from Proligo, and transfection was conducted using Lipofectamine 2000 (Invitrogen) according to the manufacturer's information. To generate stable knock-down cell lines, the siRNA sequences were cloned into the pSIREN-RetroQ retroviral expression vector (BD Bioscience) according to the manufacturer's instruction. Virally infected cells were selected in a medium containing 2 μg/ml puromycin and individual drug-resistant clones were collected, pooled and expanded.
as §4

RPS27L = RPS27L gene silencing by RNA interference, RT-PCR; settings: HCT116 cells transfected with siRNA, then VP16 (10 μM)
Protocol: as §5, §4

Compound: O=c1[nH]cc(F)c(=O)[nH]1 [5-FU, 5-fluorouracil]
- cell cycle and apoptosis response (HCT116 cells [1]; HCT116 p53+/+ and p53−/−, ADR (1 μM) or 5-FU (375 μM) for 48 h): p53-dependent apoptosis
- RPS27L protein level (RPS27L protein [2]): downregulation
- p53 and p21 protein (p53 and p21): increased p21 protein expression
- RPS27L protein level (RPS27L protein [3]): downregulated
- RPS27L mRNA (RPS27L mRNA): induced

Compound: COc1cc([C@@H]2c3cc4c(cc3[C@@H](O[C@@H]3O[C@@H]5CO[C@@H](C)O[C@H]5[C@H](O)[C@H]3O)[C@H]3COC(=O)[C@H]23)OCO4)cc(OC)c1OP(=O)(O)O [etoposide phosphate (VP16®), etoposide phosphate]
- RPS27L protein level (RPS27L protein [2]): p53-dependent upregulation of RPS27L protein
- DSB foci (γ-H2AX staining) after treatment (HCT116 cells [4]; HCT116 cells, VP16 (20 μM)): prominent DSB foci
- γ-H2AX staining after VP16 removal (HCT116 cells [4]; RPS27L-depleted HCT116 cells, after VP16 removal): sustained γ-H2AX staining
- γ-H2AX staining after VP16 removal (HCT116 cells [4]; control HCT116 cells, by 16 hours after VP16 removal): almost undetectable

Compound: COc1ccc(C2=N[C@@H](c3ccc(Cl)cc3)[C@@H](c3ccc(Cl)cc3)N2C(=O)N2CCNC(=O)C2)c(OC(C)C)c1 [nutlin-3]
- p53 and p21 protein (p53 and p21): accumulation of p53 and p21
- RPS27L protein level (RPS27L protein [3]): increased RPS27L protein levels

Compound: RPS27L shRNA: short hairpin of SEQ ID NO: 1 to deplete RPS27L, stably expressed in HCT116 from pSIREN-RetroQ retroviral vector (guide GGTTGCTACAAGATTACTA)
- cell death (sub-G1 DNA content) (HCT116 cells [1]; p53 wild-type HCT116 stably expressing RPS27L shRNA, ADR (1 μM) 48 h): marked cell death
- percentage of cells with lower membrane potential (ΔΨm) (HCT116 cells [5]): 33.5%

Compound: RPS27L siRNA: siRNA oligo targeting RPS27L, SEQ ID NO: 1: ggttgctacaagattacta, purchased from Proligo (GGTTGCTACAAGATTACTA; listed as DNA, chemistry not given here)
- cell death (sub-G1 DNA content) (HCT116 cells [1]; HCT116 cells, transient siRNA transfection, then ADR (1 μM) 24 h): marked increase in cell death
- cell death (sub-G1 DNA content) (HCT116 cells [1]; HCT116 cells, transient siRNA transfection, then etoposide phosphate (VP16) (10 μM) 24 h): marked increase in cell death
- cell death (sub-G1 DNA content) (HCT116 cells [1]; p53 null HCT116 cells, transient siRNA transfection, then ADR or VP16): not in p53 null counterparts
- effect on closely-related RPS27 (mRNA) (RPS27): no effect
- RPS27L expression (mRNA) (RPS27L): nearly completely ablated
